Experimental data reported in patent US10131652B2, “Pyrimidinyloxy benzene derivatives as herbicides” (E. I. DU PONT DE NEMOURS AND COMPANY, priority 2014, dated 2018).
Where two headings read alike, the source gives them in different places.

How the values were obtained:
Format in all cases: in vivo
[1] = test system: green foxtail (Setaria viridis); test: Test E pre-/postemergence plant response; details: scale 0 to 100, read-out: Plant response rating, Foxtail, Green; for pest or weed control at 16 g/ha: 16 g ai/ha; for pest or weed control at 31 g/ha: 31 g ai/ha; for pest or weed control at 62 g/ha: 62 g ai/ha; for pest or weed control at 125 g/ha: 125 g ai/ha
Procedure, shortened: (§1)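 Visual scores on a 0–100 scale (100 = complete control) were assigned against untreated controls 7–21 days after treatment in a controlled environment. Compounds, formulated with solvent plus surfactant, were applied to pre-emergence silt-loam sowings or to 1- to 4-leaf plants (2–18 cm) in potting medium.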

[2] = test system: Italian ryegrass (Lolium multiflorum); test: Test E pre-/postemergence plant response; details: scale 0 to 100, read-out: Plant response rating, Ryegrass, Italian; for pest or weed control at 16 g/ha: 16 g ai/ha; for pest or weed control at 31 g/ha: 31 g ai/ha; for pest or weed control at 62 g/ha: 62 g ai/ha; for pest or weed control at 125 g/ha: 125 g ai/ha
Procedure, shortened: as §1

kochia (Kochia scoparia) = test: Test F pre-/postemergence plant response; details: Bassia scoparia, scale 0 to 100, read-out: Plant response rating, Kochia; for pest or weed control at 16 g/ha: 16 g ai/ha; for pest or weed control at 31 g/ha: 31 g ai/ha; for pest or weed control at 125 g/ha: 125 g ai/ha
Procedure, shortened: (§2)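 In a greenhouse, compounds carried in a non-phytotoxic surfactant-containing solvent mixture were applied to soil at planting and to young 1- to 4-leaf plants. About two to three weeks (14 to 21 days) afterward, each species was compared with controls and rated visually from 0 to 100.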

[3] = test system: field bindweed (Convolvulus arvensis); test: Test F pre-/postemergence plant response; details: Convolvulus arvensis, scale 0 to 100, read-out: Plant response rating, Field Bindweed
Procedure, shortened: as §2

[4] = test system: velvetleaf (Abutilon theophrasti); test: Test F pre-/postemergence plant response; details: Abutilon theophrasti, pre-emergence, scale 0 to 100, read-out: Plant response rating, Velvetleaf
Procedure, shortened: as §2

[5] = test system: yellow nutsedge (Cyperus esculentus); test: Test F pre-/postemergence plant response; details: Cyperus, pre-emergence, scale 0 to 100, read-out: Plant response rating, Nutsedge, Yellow
Procedure, shortened: as §2

[6] = test system: Italian ryegrass (Lolium multiflorum); test: Test F pre-/postemergence plant response; details: Lolium multiflorum, scale 0 to 100, read-out: Plant response rating, Ryegrass, Italian; for pest or weed control at 16 g/ha: 16 g ai/ha; for pest or weed control at 31 g/ha: 31 g ai/ha; for pest or weed control at 125 g/ha: 125 g ai/ha
Procedure, shortened: as §2

[7] = test system: lambsquarters (Chenopodium album); test: Test F pre-/postemergence plant response; details: Chenopodium album, pre-emergence, scale 0 to 100, read-out: Plant response rating, Lambsquarters
Procedure, shortened: as §2

[8] = test system: nightshade (eastern black nightshade, Solanum ptycanthum); test: Test F pre-/postemergence plant response; details: Solanum, pre-emergence, scale 0 to 100, read-out: Plant response rating, Nightshade
Procedure, shortened: as §2

[9] = test system: hairy beggarticks (Bidens pilosa); test: Test F pre-/postemergence plant response; details: Bidens pilosa, scale 0 to 100, read-out: Plant response rating, Beggarticks
Procedure, shortened: as §2

[10] = test system: goosegrass (Eleusine indica); test: Test F pre-/postemergence plant response; details: Eleusine indica, pre-emergence, scale 0 to 100, read-out: Plant response rating, Goosegrass
Procedure, shortened: as §2

[11] = post-emergence, 8 g ai/ha Postemergence
[12] = post-emergence, 62 g ai/ha, Postemergence
[13] = pre-emergence, 8 g ai/ha Preemergence
[14] = post-emergence, 16 g ai/ha Postemergence
[15] = post-emergence, 31 g ai/ha Postemergence
[16] = post-emergence, 62 g ai/ha Postemergence
[17] = post-emergence, 125 g ai/ha Postemergence
[18] = pre-emergence, 16 g ai/ha Preemergence
[19] = pre-emergence, 31 g ai/ha Preemergence
[20] = pre-emergence, 62 g ai/ha Preemergence
[21] = pre-emergence, 125 g ai/ha Preemergence

Structure (SMILES): FC(F)c1cc(-c2ccccc2Oc2ncc(Cl)cn2)on1 [Compound 53, 5-chloro-2-[2-[3-(difluoromethyl)-5-isoxazolyl]phenoxy]pyrimidine]
- pest or weed control at 16 g/ha ([1]; post-emergence, Postemergence): 10%
- pest or weed control at 31 g/ha ([1]; post-emergence, Postemergence): 10%
- pest or weed control at 62 g/ha ([1]; post-emergence, Postemergence): 10%
- pest or weed control at 125 g/ha ([1]; post-emergence, Postemergence): 25%
- pest or weed control at 16 g/ha ([1]; pre-emergence, Preemergence): 10%
- pest or weed control at 31 g/ha ([1]; pre-emergence, Preemergence): 10%
- pest or weed control at 62 g/ha ([1]; pre-emergence, Preemergence): 20%
- pest or weed control at 125 g/ha ([1]; pre-emergence, Preemergence): 55%
- pest or weed control at 16 g/ha ([2]; post-emergence, Postemergence): 0%
- pest or weed control at 31 g/ha ([2]; post-emergence, Postemergence): 0%
- pest or weed control at 62 g/ha ([2]; post-emergence, Postemergence): 5%
- pest or weed control at 125 g/ha ([2]; post-emergence, Postemergence): 5%
- pest or weed control at 16 g/ha ([2]; pre-emergence, Preemergence): 10%
- pest or weed control at 31 g/ha ([2]; pre-emergence, Preemergence): 10%
- pest or weed control at 62 g/ha ([2]; pre-emergence, Preemergence): 25%
- pest or weed control at 125 g/ha ([2]; pre-emergence, Preemergence): 25%
- pest or weed control at 8 g/ha (kochia (Kochia scoparia); [11]): 50%
- pest or weed control at 16 g/ha (kochia (Kochia scoparia); post-emergence, Postemergence): 60%
- pest or weed control at 31 g/ha (kochia (Kochia scoparia); post-emergence, Postemergence): 80%
- pest or weed control at 62 g/ha (kochia (Kochia scoparia); [12]): 95%
- pest or weed control at 125 g/ha (kochia (Kochia scoparia); post-emergence, Postemergence): 98%
- pest or weed control at 8 g/ha (kochia (Kochia scoparia); [13]): 0%
- pest or weed control at 16 g/ha (kochia (Kochia scoparia); pre-emergence, Preemergence): 0%
- pest or weed control at 31 g/ha (kochia (Kochia scoparia); pre-emergence, Preemergence): 20%
- pest or weed control at 125 g/ha (kochia (Kochia scoparia); pre-emergence, Preemergence): 100%
- pest or weed control at 62 g/ha (kochia (Kochia scoparia); pre-emergence, Preemergence): 50%
- pest or weed control at 8 g/ha [3, 11]: 30%
- pest or weed control at 16 g/ha [3, 14]: 55%
- pest or weed control at 31 g/ha [3, 15]: 50%
- pest or weed control at 62 g/ha [3, 16]: 50%
- pest or weed control at 125 g/ha [3, 17]: 60%
- pest or weed control at 8 g/ha [3, 13]: 0%
- pest or weed control at 16 g/ha [3, 18]: 0%
- pest or weed control at 31 g/ha [3, 19]: 0%
- pest or weed control at 62 g/ha [3, 20]: 0%
- pest or weed control at 125 g/ha [3, 21]: 0%
- pest or weed control at 8 g/ha ([4]; 8 g ai/ha Preemergence): 0%
- pest or weed control at 16 g/ha ([4]; 16 g ai/ha Preemergence): 65%
- pest or weed control at 31 g/ha ([4]; 31 g ai/ha Preemergence): 90%
- pest or weed control at 125 g/ha ([4]; 125 g ai/ha Preemergence): 100%
- pest or weed control at 62 g/ha ([4]; Preemergence): 100%
- pest or weed control at 8 g/ha ([5]; 8 g ai/ha Preemergence): 0%
- pest or weed control at 16 g/ha ([5]; 16 g ai/ha Preemergence): 0%
- pest or weed control at 31 g/ha ([5]; 31 g ai/ha Preemergence): 0%
- pest or weed control at 125 g/ha ([5]; 125 g ai/ha Preemergence): 20%
- pest or weed control at 62 g/ha ([5]; Preemergence): 0%
- pest or weed control at 8 g/ha [6, 11]: 0%
- pest or weed control at 16 g/ha ([6]; post-emergence, Postemergence): 0%
- pest or weed control at 31 g/ha ([6]; post-emergence, Postemergence): 0%
- pest or weed control at 62 g/ha [6, 12]: 5%
- pest or weed control at 125 g/ha ([6]; post-emergence, Postemergence): 0%
- pest or weed control at 8 g/ha [6, 13]: 0%
- pest or weed control at 16 g/ha ([6]; pre-emergence, Preemergence): 0%
- pest or weed control at 31 g/ha ([6]; pre-emergence, Preemergence): 0%
- pest or weed control at 125 g/ha ([6]; pre-emergence, Preemergence): 0%
- pest or weed control at 62 g/ha ([6]; pre-emergence, Preemergence): 0%
- pest or weed control at 8 g/ha ([7]; 8 g ai/ha Preemergence): 65%
- pest or weed control at 16 g/ha ([7]; 16 g ai/ha, Preemergence): 65%
- pest or weed control at 31 g/ha ([7]; 31 g ai/ha, Preemergence): 95%
- pest or weed control at 125 g/ha ([7]; 125 g ai/ha, Preemergence): 98%
- pest or weed control at 62 g/ha ([7]; Preemergence): 95%
- pest or weed control at 16 g/ha ([8]; 16 g ai/ha Preemergence): 35%
- pest or weed control at 31 g/ha ([8]; 31 g ai/ha Preemergence): 90%
- pest or weed control at 125 g/ha ([8]; 125 g ai/ha Preemergence): 98%
- pest or weed control at 62 g/ha ([8]; Preemergence): 98%
- pest or weed control at 8 g/ha [9, 11]: 15%
- pest or weed control at 16 g/ha [9, 14]: 30%
- pest or weed control at 31 g/ha [9, 15]: 40%
- pest or weed control at 62 g/ha [9, 16]: 50%
- pest or weed control at 125 g/ha [9, 17]: 60%
- pest or weed control at 8 g/ha [9, 13]: 0%
- pest or weed control at 16 g/ha [9, 18]: 0%
- pest or weed control at 31 g/ha [9, 19]: 0%
- pest or weed control at 62 g/ha [9, 20]: 30%
- pest or weed control at 125 g/ha [9, 21]: 20%
- pest or weed control at 8 g/ha ([10]; 8 g ai/ha Preemergence): 0%
- pest or weed control at 16 g/ha ([10]; 16 g ai/ha Preemergence): 0%
- pest or weed control at 31 g/ha ([10]; 31 g ai/ha Preemergence): 0%
- pest or weed control at 125 g/ha ([10]; 125 g ai/ha Preemergence): 60%
- pest or weed control at 62 g/ha ([10]; Preemergence): 10%
